In one assay the test system is WPMY-1 fibroblasts. The experiment in a line: GSEA of RNAseq data from WPMY-1 fibroblasts. Format: cell-based, human. The following applies: for GSEA inflammatory signaling pathways (TNFα, IL-6, JAK-STAT): Olaparib 20 μM vs DMSO. As for the experimental part: Total RNA was extracted using Quick-RNA MiniPrep kit (Zymo Research). Libraries were prepared from 200 ng of total RNA using the QuantSeq 3′ mRNA-Seq Library Prep Kit FWD for Illumina from Lexogen, and optional UMIs (Vienna, Austria). Barcoded libraries were pooled, and single end sequenced (1×75) on the Illumina NextSeq 500 using the High output V2.5 kit (Illumina Inc., San Diego CA).
Peaks were annotated with ChipSeeker R package. […].

A further assay has as its system PC3 + WPMY-1 tumors. The experiment in a line: Subcutaneous xenograft co-implantation of PC3 and WPMY-1 cells in NSG mice. Type of assay: in vivo, mouse. The following applies: Olaparib 40 mg/kg i.p. twice a week, 2 weeks. Here is the method: (§1) For mouse xenografts using PC3 PCa cells and sgC or sgAP-1 WPMY-1 stromal cells. 7 weeks old NSG mice were surgical castrated and let androgen levels drop for 10 days. Cells were trypsinized washed two times in PBS and resuspend in DMEN. 1×10^6 PC3 and 1×10^6 sgC or sgAP1-A WPMY-1 for each mouse were resuspended in 100 μl DMEM: Matrigel (1:1) and injected subcutaneously into both flanks of immunocompromised NSG mice (PC3+sgC WPMY-1 n=4; PC3+sgAP-1 WPMY-1 n=4). Tumors were allowed to grow for 1 month. Mice were euthanized and tumors were collected and analyzed histologically. For Olaparib treatment in mouse xenografts. PC3 PCa cells and WPMY-1 stromal cells were trypsinized washed two times in PBS and resuspend in DMEN. 1×10^6 PC3 and 1×10^6 WPMY-1 for each mouse were resuspended in 100 μl DMEM: Matrigel (1:1) and injected subcutaneously into both flanks of immunocompromised NSG mice. Tumors were allowed to grow for 14 days, and mouse were randomly divided to receive vehicle, n=10, Olaparib (40 mg/kg, 2 days each week, i.p.), n=10 or Olaparib (40 mg/kg, 2 days each week, i.p.)+_PEGPH20 (0.0375 mg/Kg, 2 days each week, retroorbital injection) n=10. Tumors were measured twice a week. Mice were euthanized 14 days after the initiation of the treatment and tumors were collected and analyzed histologically. For Olaparib treatment in mice, 13 weeks-old male TRAMP^+, n=18, were randomly distributed to receive vehicle, n=9, or Olaparib (40 mg/kg/, 5 days each week, i.p.), n=9. Mice were euthanized 1 month after the initiation of the treatment. Prostate and other organs were collected and analyzed histologically.
Tissues from indicated mice were isolated, fixed in zinc buffered formalin overnight at 4° C., dehydrated, and embedded in paraffin. Sections (5 μm) were stained with hematoxylin and eosin (H&E). For immunohistochemistry, sections were deparaffinized, rehydrated, and then treated for antigen retrieval. […] Stained sections were analyzed with a Zeiss light microscope supplemented with Zen 3.3 Bule edition software.

The subject of a further assay is PC3 cells. The experiment in a line: Click-iT EdU proliferation of PC3 cells treated with CM from WPMY-1 cells. Type of assay: cell-based, human. The following applies: CM from Olaparib-treated WPMY-1, 24 h. Here is the method:
WPMY-1 cells were cultured in DMEN containing 10% FBS (basal conditions) or 10% charcoal stripped FBS (ADT conditions), then the cells were treated with vehicle (DMSO), Olaparib 10 μM, Olaparib 10 μM+PEGPH20 2.5 μg/ml for 96 hours, refreshing media and stimuli at 48 hours, conditioned media (CM) was generated by collecting supernatant on day 4. PC3 cells were seeded in a black-walled well (Thermo Fisher) and serum starved overnight. CM from WPMY-1 cells was added to PC3 for 24 h. PC3 were exposed to EdU incorporation for the last 2 hours. Proliferating cells were detected using Click-iT EdU Alexa fluor 488 (Thermo Fisher) following the manufacturer's instructions. Pictures were taken using EVOS M5000 Imaging System and EdU positive were measured using Fiji (Schindelin et al., 2012).

Assay [1] deals with tumor-invaded lymph nodes and bones. The experiment in a line: Castrated TRAMP+/FVB mice, IHC of metastatic lymph nodes and bone. Format: in vivo, mouse. The following applies: for αSMA expression and HA deposition in metastatic lymph nodes: 3 weeks. Here is the method:
(§2) Tissues from indicated mice were isolated, fixed in zinc buffered formalin overnight at 4° C., dehydrated, and embedded in paraffin. Sections (5 μm) were stained with hematoxylin and eosin (H&E). For immunohistochemistry, sections were deparaffinized, rehydrated, and then treated for antigen retrieval. After blocking in Protein Block Serum-Free solutions (DAKO), tissues were incubated with primary antibody overnight at 4° C. followed by incubation with biotinylated secondary antibody. Endogenous peroxidase was quenched in 3% H2O2 in water for 10 minutes at room temperature. Antibodies were visualized with avidin-biotin complex (Vectastain Elite; Vector Laboratories) using diaminobenzidine as the chromogen. Stained sections were analyzed with a Zeiss light microscope supplemented with Zen 3.3 Bule edition software.
For Olaparib treatment in mice, 13 weeks-old male TRAMP^+/FVB were surgical castrated, after 10 days n=16, were randomly distributed to receive vehicle, n=8, or Olaparib n=8 (5 mg/kg/, 5 days each, i.p.). Mice were euthanized 3 weeks after the initiation of the treatment. Prostate and other organs were collected and analyzed histologically.

Another assay deals with TRAMP+ prostate tumors. Put plainly: TRAMP+ prostate tumor model (IHC, scRNAseq). Type of assay: in vivo, mouse. Here is the method:
as §1, §2
Prostate lobes dissected and washed with cold PBS. Prostate tissue was gently minced with scissors and digested in Advance DMEN/F12 media (Gibco, Thermo Fisher) with 5 mg/ml Collagenase type II (Sigma) supplemented with Y27632 (Tocris) for 1 hour at 37° C. Cells were passed through a 70 μm strainer and centrifuge 5 minutes, 1000 rpm at 4° C. After that, cells were incubated with TrypLE Express (Gibco, Thermo Fisher) supplemented with Y27632 for 20 minutes in agitation at 37° C. to achieve a single cell suspension. TrypLE Express was quenched and washed with Advance DMEN/F12 media and then cells were centrifuged for 5 minutes, 1000 rpm at 4° C. Dead cells were removed by Annexin V ([…] technologies). scRNA-seq libraries were generated using the Chromium Single Cell 30 Reagent Kit v2 (10× Genomics). Cells were loaded onto the 10×Chromium Single Cell Platform (10× Genomics) at a concentration of 2,000 cells per μl (Single Cell 3′ library and Gel Bead Kit v.2) as described in the manufacturer's protocol (10× User Guide, Revision B). On average, approximately 8,000 cells were loaded. Generation of gel beads in emulsion (GEMs), barcoding, GEM-RT clean-up, complementary DNA amplification and library construction were all performed as per the manufacturer's protocol. Individual sample quality was checked using a Bioanalyzer Tapestation (Agilent). Qubit was used for library quantification before pooling. The final library pool was sequenced on an Illumina NovaSeq6000 instrument using a S1 flow cell. […]

Like-named read-outs stand apart in the source and are kept apart here.

Turning to `O=C(c1cc(Cc2n[nH]c(=O)c3ccccc23)ccc1F)N1CCN(C(=O)C2CC2)CC1` [Olaparib], the “GSEA inflammatory signaling pathways (TNFα, IL-6, JAK-STAT)” value in the assay on WPMY-1 fibroblasts is reported as “increased inflammatory related signatures”. In addition, the “GSEA inflammatory signaling pathways (TNFα, IL-6, JAK-STAT)” value in the assay on WPMY-1 fibroblasts (listed as Ola) was “significant enrichment was found in inflammatory signaling pathways”. In addition, in the assay on WPMY-1 fibroblasts (basal or ADT conditions), the “GSEA signatures of extracellular matrix remodeling / CAF activation” value was “enrichment of signatures corresponding to extracellular matrix remodeling”. Further, in the assay with PC3 + WPMY-1 tumors, the “desmoplastic response (collagen, HA, aSMA, p62)” value is recorded as “strong desmoplastic response” and the “tumor growth (weight, volume)” value is reported as “efficiently reduced tumor growth”. Moreover, the “PC3 proliferation (EdU positive cells)” value in the assay with PC3 cells is “increased PC3 proliferation”. In addition, in assay [1], the “HA in bone marrow stromal cells and growth plate” value is “increased HA deposition in the growth plate and stromal areas”; the “αSMA expression and HA deposition in metastatic lymph nodes” value is reported as “increased stromal content upon Olaparib treatment”. In assay [1] (listed as Ola), the “αSMA expression and HA deposition in metastatic lymph nodes” value was “increased «SMA expression and higher hyaluronan (HA) deposition”; the “HA in bone marrow stromal cells and growth plate” value is “higher levels of HA”. Also, in the assay with TRAMP+ prostate tumors (Olaparib 40 mg/Kg, 5 days a week, 4 weeks), the “desmoplastic response in the prostate (IHC HA, aSMA)” value is on record as “induced a strong desmoplastic response in the prostate”. In the assay with TRAMP+ prostate tumors (Olaparib 4 weeks), the “AR, EMT and TGFβ signaling signatures in tumor epithelium” value is “increased AR, EMT and TGFβ signaling”; the “Has1, Spink1 and Tgfb2 transcripts in fibroblast population (scRNAseq)” value is listed as “among the most upregulated transcripts”; the “neuroendocrine cluster 2 (NE1) of tumor epithelium (scRNAseq)” value is listed as “completely abolished the neuroendocrine cluster 2”; the “pSMAD2 staining in prostates (IHC)” value is recorded as “increased pSMAD2 staining”. In the assay on TRAMP+ prostate tumors (Olaparib 4 weeks), the “stromal and immune cell populations (scRNAseq)” value is “expansion of the stromal and immune populations”. In the assay with TRAMP+ prostate tumors (in vivo), the “SPINK1 levels in tumor stroma (IHC)” value is listed as “highly upregulated”.

(Values after patent US20250073234A1, “COMBINATION THERAPIES INCLUDING PARP1 INHIBITORS” (Cornell University, priority 2022, published 2025).)
